Measured values reported in US20140148443A1, “Novel Imidazolines as dual inhibitors of MDM2 and MDMX” (priority 2012, published 2014).
pIC50: −log10 of the molar value. Counter-ions that a name gives are not always drawn.

Columns and labels:
GST-tagged MDMX = target: T1, GST-tagged MDMX (Homo sapiens, UniProt O15151); assay: HTRF binding assay of GST-tagged MDMX to p53 peptide
T1 sequence (O15151 1-490): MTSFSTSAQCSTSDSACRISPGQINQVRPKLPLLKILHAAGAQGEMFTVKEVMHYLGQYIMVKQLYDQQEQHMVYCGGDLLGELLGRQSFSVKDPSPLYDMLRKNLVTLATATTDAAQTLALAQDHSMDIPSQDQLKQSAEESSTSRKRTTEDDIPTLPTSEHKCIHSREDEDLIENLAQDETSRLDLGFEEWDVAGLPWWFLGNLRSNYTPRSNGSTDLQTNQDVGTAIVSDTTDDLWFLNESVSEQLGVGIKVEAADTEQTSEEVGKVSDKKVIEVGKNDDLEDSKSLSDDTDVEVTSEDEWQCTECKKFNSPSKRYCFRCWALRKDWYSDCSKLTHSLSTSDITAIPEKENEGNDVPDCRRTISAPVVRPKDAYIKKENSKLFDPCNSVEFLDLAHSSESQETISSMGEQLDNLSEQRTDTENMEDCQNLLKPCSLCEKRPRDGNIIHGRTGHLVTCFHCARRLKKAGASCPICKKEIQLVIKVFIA

[1] = target: recombinant GST-tagged MDM2 (Homo sapiens, UniProt Q00987); assay: HTRF assay of interaction between p53 peptide and GST-tagged MDM2; settings: inhibition of GST-MDM2 (160 ng/ml) binding to biotinylated p53-peptide
Experimental: The ability of a test compound to inhibit the interaction between p53 and MDM2 protein was measured by an HTRF (homogeneous time-resolved fluorescence) assay in which recombinant GST-tagged MDM2 binds to a peptide that resembles the MDM2-interacting region of p53 Aca-[…]-OH hereinafter p53-peptide). Binding of GST-MDM2 protein and p53-peptide (biotinylated on its N-terminal end) is registered by the FRET (fluorescence resonance energy transfer) between Europium (Eu)-labeled anti-GST antibody and streptavidin-conjugated Allophycocyanin (APC).
The test was performed in black flat-bottom 384-well plates (Costar) in a total volume of 40 uL containing: 90 nM biotinylated peptide, 160 ng/ml GST-MDM2, 20 nM streptavidin-APC (PerkinElmerWallac), 2 nM Eu-labeled anti-GST-antibody (PerkinElmerWallac), 0.02% bovine serum albumin (BSA), 1 mM dithiothreitol (DTT) and 20 mM […] (TBS) buffer as follows: add 10 uL of GST-MDM2 (640 ng/ml working solution) in reaction buffer to each well. Add 10 uL diluted compounds (1:5 dilution in reaction buffer) to each well, mix by shaking. Add 20 uL biotinylated p53 peptide (180 nM working solution) in reaction buffer to each well and mix on shaker. Incubate at 37° C. for 1 h. Add […] streptavidin-APC and Eu-anti-GST antibody mixture (6 nM Eu-anti-GST and 60 nM streptavidin-APC working solution) in TBS buffer with 0.02% BSA, shake at room temperature for 30 minutes and read using a TRF-capable plate reader at 665 and 615 nm (Victor 5, Perkin ElmerWallac). If not specified, the reagents were purchased from Sigma Chemical Co.

Chain of recombinant GST-tagged MDM2 (Q00987 whole entry): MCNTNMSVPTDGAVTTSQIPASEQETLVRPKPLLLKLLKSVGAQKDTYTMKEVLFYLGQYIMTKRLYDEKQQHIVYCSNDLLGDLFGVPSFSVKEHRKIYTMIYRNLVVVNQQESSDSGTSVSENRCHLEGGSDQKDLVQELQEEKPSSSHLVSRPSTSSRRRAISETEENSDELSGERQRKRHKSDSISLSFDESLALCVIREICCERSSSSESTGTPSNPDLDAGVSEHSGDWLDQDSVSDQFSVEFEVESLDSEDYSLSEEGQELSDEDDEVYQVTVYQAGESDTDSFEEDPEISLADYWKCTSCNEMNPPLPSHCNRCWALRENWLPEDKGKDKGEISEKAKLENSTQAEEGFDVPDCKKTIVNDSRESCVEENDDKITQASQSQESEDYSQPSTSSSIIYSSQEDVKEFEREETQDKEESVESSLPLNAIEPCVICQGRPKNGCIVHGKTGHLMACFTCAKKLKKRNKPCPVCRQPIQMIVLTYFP

CCOc1cc(Cl)c(S(C)(=O)=O)cc1C1=N[C@@](C)(c2ccc(Cl)cc2)[C@@](C)(c2ccc(Cl)cc2)N1C(=O)N1CCC(NC(N)=O)CC1 [Example 32, {1-[(4S,5R)-2-(4-Chloro-2-ethoxy-5-methanesulfonyl-phenyl)-4,5-bis-(4-chloro-phenyl)-4,5-dimethyl-4,5-dihydro-imidazole-1-carbonyl]-piperidin-4-yl}-urea] showed a pIC50 (GST-tagged MDMX) of 5.84 and a pIC50 [1] of 8.28.
CCOc1cc(Cl)c(S(C)(=O)=O)cc1C1=N[C@@](C)(c2ccc(Cl)cc2)[C@@](C)(c2ccc(Cl)cc2)N1C(=O)N1CCC(NS(C)(=O)=O)CC1 [Example 33, N-{1-[(4S,5R)-2-(4-Chloro-2-ethoxy-5-methanesulfonyl-phenyl)-4,5-bis-(4-chloro-phenyl)-4,5-dimethyl-4,5-dihydro-imidazole-1-carbonyl]-piperidin-4-yl}-methanesulfonamide] showed a pIC50 (GST-tagged MDMX) of 5.95 and a pIC50 [1] of 8.28.
CCOc1cc(Cl)c(S(C)(=O)=O)cc1C1=N[C@@](C)(c2ccc(Cl)cc2)[C@@](C)(c2ccc(Cl)cc2)N1C(=O)N1CCC(NC(=O)NC2CCS(=O)(=O)C2)CC1 (stereo partly drawn) [Example 34, 1-{1-[(4S,5R)-2-(4-Chloro-2-ethoxy-5-methanesulfonyl-phenyl)-4,5-bis-(4-chloro-phenyl)-4,5-dimethyl-4,5-dihydro-imidazole-1-carbonyl]-piperidin-4-yl}-3-(1,1-dioxo-tetrahydro-1λ6-thiophen-3-yl)-urea] was tested, and the pIC50 (GST-tagged MDMX) was 5.87 and the pIC50 [1] was 8.20.
For CCOc1cc(Cl)c(S(C)(=O)=O)cc1C1=N[C@@](C)(c2ccc(Cl)cc2)[C@@](C)(c2ccc(Cl)cc2)N1C(=O)N1CCN(CC(=O)O)CC1 [Example 35, {4-[(4S,5R)-2-(4-Chloro-2-ethoxy-5-methanesulfonyl-phenyl)-4,5-bis-(4-chloro-phenyl)-4,5-dimethyl-4,5-dihydro-imidazole-1-carbonyl]-piperazin-1-yl}-acetic acid, hydrochloride], the pIC50 (GST-tagged MDMX) was 5.54 and the pIC50 [1] was 8.17.
With CCOc1cc(Cl)c(S(C)(=O)=O)cc1C1=N[C@@](C)(c2ccc(Cl)cc2)[C@@](C)(c2ccc(Cl)cc2)N1C(=O)N1CCC(NC(C)=O)CC1 [Example 36, N-{1-[(4S,5R)-2-(4-Chloro-2-ethoxy-5-methanesulfonyl-phenyl)-4,5-bis-(4-chloro-phenyl)-4,5-dimethyl-4,5-dihydro-imidazole-1-carbonyl]-piperidin-4-yl}-acetamide] the pIC50 (GST-tagged MDMX) was 5.90 and the pIC50 [1] was 8.32.
Compound CCOc1cc(Cl)c(S(C)(=O)=O)cc1C1=N[C@@](C)(c2ccc(Cl)cc2)[C@@](C)(c2ccc(Cl)cc2)N1C(=O)N1CCC(N(C)CCCN(C)C)C1 (stereo partly drawn) [Example 37, [(4S,5R)-2-(4-Chloro-2-ethoxy-5-methanesulfonyl-phenyl)-4,5-bis-(4-chloro-phenyl)-4,5-dimethyl-4,5-dihydro-imidazol-1-yl]-{3-[(3-dimethylamino-propyl)-methyl-amino]-pyrrolidin-1-yl}-methanone] has a pIC50 (GST-tagged MDMX) of 5.41 and a pIC50 [1] of 8.21.
Work on CCOc1cc(Cl)c(S(C)(=O)=O)cc1C1=N[C@@](C)(c2ccc(Cl)cc2)[C@@](C)(c2ccc(Cl)cc2)N1C(=O)N1CCC(O)CC1 [Example 38, [(4S,5R)-2-(4-Chloro-2-ethoxy-5-methanesulfonyl-phenyl)-4,5-bis-(4-chloro-phenyl)-4,5-dimethyl-4,5-dihydro-imidazol-1-yl]-(4-hydroxy-piperidin-1-yl)-methanone] yielded a pIC50 (GST-tagged MDMX) of 5.54 and a pIC50 [1] of 8.08.
CCOc1cc(Cl)c(S(C)(=O)=O)cc1C1=N[C@@](C)(c2ccc(Cl)cc2)[C@@](C)(c2ccc(Cl)cc2)N1C(=O)N1CCC(CC(N)=O)CC1 [Example 39, 2-{1-[(4S,5R)-2-(4-Chloro-2-ethoxy-5-methanesulfonyl-phenyl)-4,5-bis-(4-chloro-phenyl)-4,5-dimethyl-4,5-dihydro-imidazole-1-carbonyl]-piperidin-4-yl}-acetamide] was tested, and the pIC50 (GST-tagged MDMX) was 5.99 and the pIC50 [1] was 8.21.
With CC(C)Oc1cc(Cl)c(S(C)(=O)=O)cc1C1=N[C@@](C)(c2ccc(Cl)cc2)[C@@](C)(c2ccc(Cl)cc2)N1C(=O)N1CCN(CCCS(C)(=O)=O)CC1 [Example 40, [(4S,5R)-2-(4-Chloro-2-isopropoxy-5-methanesulfonyl-phenyl)-4,5-bis-(4-chloro-phenyl)-4,5-dimethyl-4,5-dihydro-imidazol-1-yl]-[4-(3-methanesulfonyl-propyl)-piperazin-1-yl]-methanone] the pIC50 (GST-tagged MDMX) was 6.54 and the pIC50 [1] was 8.21.
With CC(C)Oc1cc(Cl)c(S(C)(=O)=O)cc1C1=N[C@@](C)(c2ccc(Cl)cc2)[C@@](C)(c2ccc(Cl)cc2)N1C(=O)N1CCC(CC(N)=O)CC1 [Example 41, 2-{1-[(4S,5R)-2-(4-Chloro-2-isopropoxy-5-methanesulfonyl-phenyl)-4,5-bis-(4-chloro-phenyl)-4,5-dimethyl-4,5-dihydro-imidazole-1-carbonyl]-piperidin-4-yl}-acetamide] the pIC50 (GST-tagged MDMX) was 6.77 and the pIC50 [1] was 8.16.
C[C@@]1(c2ccc(Cl)cc2)N=C(c2cc(S(C)(=O)=O)c(Cl)cc2OCC2CC2)N(C(=O)N2CCN(CCCS(C)(=O)=O)CC2)[C@]1(C)c1ccc(Cl)cc1 [Example 42, [(4S,5R)-2-(4-Chloro-2-cyclopropylmethoxy-5-methanesulfonyl-phenyl)-4,5-bis-(4-chloro-phenyl)-4,5-dimethyl-4,5-dihydro-imidazol-1-yl]-[4-(3-methanesulfonyl-propyl)-piperazin-1-yl]-methanone] was tested, and the pIC50 (GST-tagged MDMX) was 5.18 and the pIC50 [1] was 7.90.
For C[C@@]1(c2ccc(Cl)cc2)N=C(c2cc(S(C)(=O)=O)c(Cl)cc2OCCF)N(C(=O)N2CCN(CCCS(C)(=O)=O)CC2)[C@]1(C)c1ccc(Cl)cc1 [Example 43, [(4S,5R)-2-[4-Chloro-2-(2-fluoro-ethoxy)-5-methanesulfonyl-phenyl]-4,5-bis-(4-chloro-phenyl)-4,5-dimethyl-4,5-dihydro-imidazol-1-yl]-[4-(3-methanesulfonyl-propyl)-piperazin-1-yl]-methanone], the pIC50 (GST-tagged MDMX) was 5.86 and the pIC50 [1] was 8.01.
For CCC(C)Oc1cc(Cl)c(S(C)(=O)=O)cc1C1=N[C@@](C)(c2ccc(Cl)cc2)[C@@](C)(c2ccc(Cl)cc2)N1C(=O)N1CCN(CCCS(C)(=O)=O)CC1 (stereo partly drawn) [Example 44, [(4S,5R)-2-(2-sec-Butoxy-4-chloro-5-methanesulfonyl-phenyl)-4,5-bis-(4-chloro-phenyl)-4,5-dimethyl-4,5-dihydro-imidazol-1-yl]-[4-(3-methanesulfonyl-propyl)-piperazin-1-yl]-methanone], the pIC50 (GST-tagged MDMX) was 5.82 and the pIC50 [1] was 7.86.
For CCOc1cc(Cl)c(S(=O)(=O)NC(C)(C)C)cc1C1=N[C@@](C)(c2ccc(Cl)cc2)[C@@](C)(c2ccc(Cl)cc2)N1C(=O)N1CCN(CCC(O)CO)CC1 (stereo partly drawn) [Example 45, 5-{(4S,5R)-4,5-Bis-(4-chloro-phenyl)-1-[4-(3,4-dihydroxy-butyl)-piperazine-1-carbonyl]-4,5-dimethyl-4,5-dihydro-1H-imidazol-2-yl}-N-tert-butyl-2-chloro-4-ethoxy-benzene sulfonamide], the pIC50 (GST-tagged MDMX) was 5.95 and the pIC50 [1] was 7.89.
Work on CCOc1cc(Cl)c(S(=O)(=O)NC(C)(C)C)cc1C1=N[C@@](C)(c2ccc(Cl)cc2)[C@@](C)(c2ccc(Cl)cc2)N1C(=O)N1CCN(CCOCCO)CC1 [Example 46, 5-((4S,5R)-4,5-Bis-(4-chloro-phenyl)-1-{4-[2-(2-hydroxy-ethoxy)-ethyl]-piperazine-1-carbonyl}-4,5-dimethyl-4,5-dihydro-1H-imidazol-2-yl)-N-tert-butyl-2-chloro-4-ethoxy-benzenesulfonamide] yielded a pIC50 (GST-tagged MDMX) of 5.74 and a pIC50 [1] of 7.91.
With CCOc1cc(Cl)c(S(=O)(=O)NC(C)(C)C)cc1C1=N[C@@](C)(c2ccc(Cl)cc2)[C@@](C)(c2ccc(Cl)cc2)N1C(=O)N1CCN(CC(=O)N2CCN(C)CC2)CC1 [Example 47, 5-((4S,5R)-4,5-Bis-(4-chloro-phenyl)-4,5-dimethyl-1-{4-[2-(4-methyl-piperazin-1-yl)-2-oxo-ethyl]-piperazine-1-carbonyl}-4,5-dihydro-1H-imidazol-2-yl)-N-tert-butyl-2-chloro-4-ethoxy-benzenesulfonamide] the pIC50 (GST-tagged MDMX) was 5.97 and the pIC50 [1] was 8.18.
